SMILES strings stand for the structures. Several values for one entry are separate records, joined by “and”; a condition that tells them apart may be missing. Identical values can stand only once. Like-named read-outs stand apart in the source and are kept apart here.

One experiment concerns the target T1, hCBS-413 (Homo sapiens, UniProt P35520).
T1 construct: hCBS-413 (a C-terminal truncated hCBS 1–413); GST (N); made in house; host or cells: E. coli BL21
T1 sequence (P35520 1-413): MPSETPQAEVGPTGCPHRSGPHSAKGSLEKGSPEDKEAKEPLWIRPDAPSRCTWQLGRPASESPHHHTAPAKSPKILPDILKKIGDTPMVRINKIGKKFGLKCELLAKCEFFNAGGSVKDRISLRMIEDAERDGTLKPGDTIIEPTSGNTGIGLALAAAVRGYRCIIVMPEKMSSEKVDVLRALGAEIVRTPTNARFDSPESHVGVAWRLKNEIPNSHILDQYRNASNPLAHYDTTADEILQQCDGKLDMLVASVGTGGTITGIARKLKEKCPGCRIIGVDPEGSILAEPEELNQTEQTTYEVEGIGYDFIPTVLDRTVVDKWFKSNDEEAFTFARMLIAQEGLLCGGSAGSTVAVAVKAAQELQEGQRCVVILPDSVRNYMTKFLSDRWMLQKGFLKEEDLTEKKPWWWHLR
Put plainly: purified hCBS-413 enzyme assay (192-tandem-well plate, H2S detected with DTNB). Format: biochemical. On the procedure:
Fig. 1 CH004 inhibits the activity of hCBS in the in vitro purified enzyme assays under different assay conditions. a A scheme for the cascade enzymatic reactions catalyzed by CBS or CSE. Cth, cystathionine. b, c Inhibitory effects of CH004 on the activity of hCBS-413 (b) or hCSE (c). The enzyme activities were monitored for various concentrations of CH004 under the standard conditions (50 mM Tris-HCl, pH 8.6; “Materials and Methods” section). The result is shown as percentages of the control (DMSO, 100%). The data are shown as means ± SDS (n = 3). d The dose-dependent inhibition of CH004 on the hCBS-413 activity was measured by the tandem-well-based assay under the standard conditions except using 50 mM Hepes buffer (pH 7.4) instead of 50 mM Tris-HCl (pH 8.6). Means ± SDs (n = 3). e The dose-dependent inhibition of CH004 on the CBS activity measured by methylene blue method. The CBS enzyme assay was performed with a 50 μl assay buffer in an Eppendorf tube under the standard assay conditions for the 192-tandem-well based assay, i.e., 50 μl 50 mM Tris-HCl buffer (pH 8.6) containing 150 nM hCBS-FL, 200 μM S-adenosyl-L-methionine, 4 mM L-Cys and 4 mM D,L-Hcys, in the presence of 0 (DMSO control), 0.01, 0.5, 1, 5, 10 or 100 μM CH004. After 80 min, the assay was stopped by added 10 μL 10% ZnAC and the generated H2S was quantified by N,N-dimethyl-p-phenylenediamine to give an absorbance at 670 nm (for details, see Materials and Methods section; ref. [53]).
(§1) The IC50 values of CH004 for hCBS-413, hCBS-413 mutants, hCBS-FL, hCSE or hDDC were determined according to the standard assay conditions otherwise indicated.
Table S2. Inhibitory effects of CH004 on hCBS WT and mutants.

In experiment [1] the test system is HepG2, HEK293T, Huh7, H22, Panc-28, HCT116 and MDA-MB-231 cells. As to the kind of experiment: cell proliferation, all tested cell lines. To be noted: 24 h; read-out: IC50 range, proliferation of all tested cells. Format: cell-based. On the procedure:
With a bioactive and selective inhibitor of CBS in hand, we examined the effect of CH004 on the proliferation of HepG2 and HEK293T cells as well as hepatocellular carcinoma Huh7 and H22, pancreatic cancer Panc-28, colon cancer HCT116 and breast cancer MDA-MB-231 cells. […] HCT116 was the most affected cell line with an IC50 of 4 μM amongst tested cell lines (Fig. 4a and Supplementary Figure 11). […] To confirm that CH004-mediated inhibitory effects are due to the specific inhibition of hCBS, we generated hCBS-overexpressed (293T-CBS WT) stable cell lines by transducing HEK293T cells with lentivirus carrying hCBS WT genes. […] In supporting the pros of CBS on the proliferation, knock-down of CBS indeed substantially retards cell proliferation in HEK293T cells (Supplementary Figure 12c, d). […] Importantly, CH004 could largely retard the colony formation of HepG2 cells with an IC50 of ~8 μM (Supplementary Figure 12e–g).
To measure cell viability and cytotoxicity, HepG2, HEK293T, Huh-7, H22, Panc-28, HCT116 and MDA-MB-231 cells were seeded at a density of ~ 2 × 10^4 cells per well in 96-well plates (Coring, NY, USA) for one day, followed by incubation with DMSO or various concentrations of tested compound for indicated times. […]

Another experiment has as its target hCSE (Homo sapiens, UniProt P32929). Put plainly: purified hCSE enzyme assay. Set-up: human CBS or hCSE full-length (CBS-FL or CSE) was subcloned into pGEX-KG, pcDNA3 or pCDH vector; GST (N); made in house; host or cells: E. coli BL21. Format: biochemical. On the procedure:
Fig. 1 CH004 inhibits the activity of hCBS in the in vitro purified enzyme assays under different assay conditions. a A scheme for the cascade enzymatic reactions catalyzed by CBS or CSE. Cth, cystathionine. b, c Inhibitory effects of CH004 on the activity of hCBS-413 (b) or hCSE (c). The enzyme activities were monitored for various concentrations of CH004 under the standard conditions (50 mM Tris-HCl, pH 8.6; “Materials and Methods” section). The result is shown as percentages of the control (DMSO, 100%). The data are shown as means ± SDS (n = 3). d The dose-dependent inhibition of CH004 on the hCBS-413 activity was measured by the tandem-well-based assay under the standard conditions except using 50 mM Hepes buffer (pH 7.4) instead of 50 mM Tris-HCl (pH 8.6). Means ± SDs (n = 3). e The dose-dependent inhibition of CH004 on the CBS activity measured by methylene blue method. […] After 80 min, the assay was stopped by added 10 μL 10% ZnAC and the generated H2S was quantified by N,N-dimethyl-p-phenylenediamine to give an absorbance at 670 nm (for details, see Materials and Methods section; ref. [53]).
as §1

hCSE, sequence (P32929 whole entry): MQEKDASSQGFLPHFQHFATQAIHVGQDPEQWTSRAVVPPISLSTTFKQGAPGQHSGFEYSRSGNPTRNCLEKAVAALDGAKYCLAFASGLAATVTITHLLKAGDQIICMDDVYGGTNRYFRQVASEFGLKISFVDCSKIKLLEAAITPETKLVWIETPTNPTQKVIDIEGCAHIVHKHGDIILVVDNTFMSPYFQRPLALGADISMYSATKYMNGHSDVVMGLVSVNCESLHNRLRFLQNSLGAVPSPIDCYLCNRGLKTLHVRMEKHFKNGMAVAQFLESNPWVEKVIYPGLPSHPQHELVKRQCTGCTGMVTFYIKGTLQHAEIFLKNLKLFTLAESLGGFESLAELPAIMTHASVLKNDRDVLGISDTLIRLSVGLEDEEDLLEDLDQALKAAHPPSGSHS

As to `Cn1nc(Cc2ccccc2)nc2c(=O)n(C)c(=O)nc1-2` [CH004, 3-benzyl-1,6-dimethylpyrimido[5,4-e][1,2,4]triazine-5,7(1H,6H)-dione], the IC50 is 1200 ± 50 nM at hCBS-413 (150 nM purified CBS, 4 mM Hcys, 4 mM Cys, 50 mM Tris-HCl pH 8.6 (Table S2), read-out: IC50 hCBS WT); 1100 ± 170 nM at hCBS-413 (hCBS-413, 50 mM Hepes buffer pH 7.4 instead of Tris-HCl pH 8.6, read-out: IC50 on hCBS (Hepes; pH 7.4)); ~1000 nM and 1000 nM at hCBS-413 (standard conditions, 50 mM Tris-HCl pH 8.6, read-out: IC50 on hCBS-413); 4000 to 25000 nM in experiment [1]; 29900 ± 5600 nM against hCSE (standard conditions, 50 mM Tris-HCl pH 8.6). Also, the “IC50 fold to WT, hCBS WT” value against hCBS-413 (Table S2) was found to be 1. Further, the “Fold selectivity hCSE vs hCBS-413” value on hCSE (IC50 of hCSE / IC50 of hCBS-413) was 29.9 fold.

These data come from article PMC6158189, “A pharmacological probe identifies cystathionine β-synthase as a new negative regulator for ferroptosis” (Cell Death & Disease, 2018).
